One data set addresses IRF5. To be noted: ASO.
Another data set has as its target HBV. The note with it: ASO.

Experimental findings from the OligoGym collection are described below.

Several values for one entry are separate records, joined by “and”; a condition that tells them apart may be missing. Equal entries are not always repeated. After the bases stand the sugars from the 5' end (letter, count) and the backbone: PS all phosphorothioate, else s phosphorothioate and o phosphodiester by linkage. HELM strings list units from the 5' end as sugar, base in round brackets, then linkage (d deoxyribose, r ribose, m 2'-O-methyl, p phosphodiester). Methylation of C is not given here. [mop] = methoxypropylphosphonate linkage; [moe] = 2'-O-(2-methoxyethyl) (MOE); [cEt] = constrained ethyl (cEt); [sp] = phosphorothioate linkage; e = 2'-O-(2-methoxyethyl) (MOE); k = constrained ethyl (cEt); d = 2'-deoxy (DNA); m = 2'-O-methyl

In turn, “AGCTTGGTCTTGACCT (sugars kkkdddddddddkeke, PS)” showed a target mRNA inhibition in the data set with IRF5 (KARPAS-229, 4 µM) of 26%.
In the data set with IRF5 (KARPAS-229, 4 µM), “GCTGTCACATCTCCAC (sugars kkkddddddddkekek, PS)” showed a target mRNA inhibition of 0%.
Same read-out and setting: the result for “GGAGTGAGACGAGCAA (sugars k2 d8 e4 k2, PS)” reads 17%; that for “ACCATTCTATGCCTTT (sugars kekdddddddddeekk, PS)”, 51%.
GGTCTTGACCTCCCGC (sugars k3 d10 k3, PS) had a target mRNA inhibition in the data set with IRF5 (KARPAS-229, 4 µM) of 33%.
For “GGTGTATTTCCCTGTC (sugars kkkdddddddddkeke, PS)”, the target mRNA inhibition with IRF5 (KARPAS-229, 4 µM) came out at 0%.
The substance “GTTATCTCCGTCCTGG (sugars k3 d9 k3 e1, PS)” had a target mRNA inhibition in the data set with IRF5 (KARPAS-229, 4 µM) of 33%.
On the same count and under the same terms, the result for “TGAGTCTCAAACCAGG (sugars kkdddkddddkekekk, PS)” reads 0%.
For the substance “TCTGATATGATACCTA (sugars k3 d1 m1 d8 k3, PS)”, the target mRNA inhibition is 1% with IRF5 (A-431, 0.00412 µM); 8% with IRF5 (A-431, 0.01225 µM); 35% with IRF5 (A-431, 0.03704 µM); 57% with IRF5 (A-431, 0.11111 µM); 77% with IRF5 (A-431, 0.33333 µM); 81% with IRF5 (A-431, 1 µM).
Substance “GCTGTCACATCTCCAC (sugars kkddddddddddkeke, PS)” had a target mRNA inhibition in the data set with IRF5 (KARPAS-229, 4 µM) of 8%.
For “ACCATTCTATGCCTTT (sugars k3 d9 k3 e1, PS)”, the target mRNA inhibition with IRF5 (KARPAS-229, 0.44444 µM) is 33%; with IRF5 (KARPAS-229, 1.33333 µM) it was 56%; with IRF5 (KARPAS-229, 4 µM), 59% and 61%; in the data set with IRF5 (KARPAS-229, 12 µM), 75%.
With “CACATCTCCACATCAG (sugars kkddddddddkekekk, PS)”, the target mRNA inhibition in the data set with IRF5 (KARPAS-229, 4 µM) is 17%.
The substance CAGGGAGTCAGACCTA (sugars k3 d10 k3, PS) registered a target mRNA inhibition with IRF5 (KARPAS-229, 4 µM) of 0%.
On the same count and under the same terms, with “GGAAGTGAGTCTCAAA (sugars kkdddddddddkdkdk, PS)” the figure was 12%; with “ATGAGTCATGGGCTGA (sugars kkkddddddddkekek, PS)”, 0%.
On the same count and under the same terms, with CGGTGTATTTCCCTGT (sugars k3 d10 k3, PS) the figure was 0%; with “CCAATTTTGCATTCCA (sugars kkddddddddkekekk, PS)”, 39%.
In the case of “TCTGATATGATACCTA (sugars k3 d10 k3, linkages s5 [mop]1 s9)”, the target mRNA inhibition with IRF5 (A-431, 0.00412 µM) turned out to be 10%; with IRF5 (A-431, 0.01225 µM), 6%; with IRF5 (A-431, 0.03704 µM), 38%; with IRF5 (A-431, 0.11111 µM) it was 56%; in the data set with IRF5 (A-431, 0.33333 µM), 71%; with IRF5 (A-431, 1 µM), 77%.
AGCTTTCTTGTCTAGT (sugars k3 d10 k3, PS): in the data set with IRF5 (KARPAS-229, 4 µM), the target mRNA inhibition worked out at 20%.
Still for that read-out and setting: the result for “GGAGTGAGACGAGCAA (sugars k2 d9 e3 k2, PS)” reads 25%; that for “TCCAATTTTGCATTCC (sugars kkddddddddddkeke, PS)”, 40%.
As for TCCAATTTTGCATTCC (sugars k3 d10 k3, PS), the target mRNA inhibition with IRF5 (KARPAS-229, 0.44444 µM) is 38%; in the data set with IRF5 (KARPAS-229, 1.33333 µM), 66%; with IRF5 (KARPAS-229, 4 µM), 78% and 79%; with IRF5 (KARPAS-229, 12 µM), 83%.
Turning to “CGGTCTTTGAGGTCTG (sugars kkkddddddddkekek, PS)”, the target mRNA inhibition with IRF5 (KARPAS-229, 4 µM) turned out to be 56%.
The same measure, in the same setting: with “GGTCTTGACCTCCCGC (sugars kkddddddddddkeke, PS)” the figure was 0%; with “GGTCTGGCCCTTTTGG (sugars kkkdddddddddkeke, PS)”, 17%.
Turning to “TGAGTCATGGGCTGAG (sugars k2 d8 e4 k2, PS)”, in the data set with IRF5 (KARPAS-229, 4 µM), the target mRNA inhibition was determined as 15%.
Regarding “TGAGTCATGGGCTGAG (sugars kddddddddkekekdd, PS)”, the target mRNA inhibition in the data set with IRF5 (KARPAS-229, 4 µM) stood at 0%.
Still for that read-out and setting: with GCAAAGGGTGAGTAGG (sugars k3 d10 k3, PS) the figure was 24%; with CGGTCTTTGAGGTCTG (sugars k3 d10 k3, PS), 32%; with ATCTGATATGATACCT (sugars k3 d10 k3, PS), 36%.
As for “RNA1{[moe](T)[sp].[moe](C)[sp].[moe](C)[sp].[moe](G)[sp].d(C)[sp].d(A)[sp].d(G)[sp].d(T)[sp].d(A)[sp].d(T)[sp].d(G)[sp].d(G)[sp].d(A)[sp].[moe](T)[sp].[moe](C)[sp].[moe](G)}$$$$V2.0”, in the data set with HBV (HepG2, 0.07 µM), the target mRNA inhibition was 71% and 73%.
For the substance “RNA1{[moe](T)[sp].[moe](T)[sp].d(C)[sp].d(C)[sp].d(G)[sp].d(C)[sp].d(A)[sp].d(G)[sp].d(T)[sp].d(A)[sp].d(T)[sp].[moe](G)[sp].[moe](G)[sp].[moe](A)[sp].[moe](T)[sp].[moe](C)}$$$$V2.0”, in the data set with HBV (HepG2, 0.07 µM), the target mRNA inhibition was 62% and 50%.
“RNA1{[moe](A)[sp].[cEt](C)[sp].[cEt](T)[sp].d(A)[sp].d(G)[sp].d(T)[sp].d(A)[sp].d(A)[sp].d(A)[sp].d(C)[sp].d(T)[sp].d(G)[sp].d(A)[sp].[cEt](G)[sp].[cEt](C)[sp].[moe](C)}$$$$V2.0”: the target mRNA inhibition in the data set with HBV (HepG2, 0.0092593 µM) is 24%; in the data set with HBV (HepG2, 0.0277778 µM), 55%; with HBV (HepG2, 0.07 µM), 77% and 85%; with HBV (HepG2, 0.0833333 µM), 74%; with HBV (HepG2, 0.25 µM), 88%.
